Experimental data from PMC9661397 (Circulation, 2020).
Blank lines part the entries; values can stand above or below the compound they belong to.

Experiments:
C57BL/6J mice = assay: In vivo electrophysiology study, AF induced by burst pacing; design: species or system mouse; settings: for AF inducibility: 25 mg·kg−1·d−1 IP for 4 weeks (28 days)
BTK = BTK (Mus musculus, UniProt P35991); assay: KiNativ chemoproteomic kinase profiling in mouse heart lysate; assay type: binding; settings: read-out: % inhibition of BTK
CSK = CSK (Mus musculus, UniProt P41241); assay: as above; assay type: binding
RIPK3 = RIPK3 (Mus musculus, UniProt Q9QZL0); assay: as above; assay type: binding; settings: read-out: % inhibition of RIPK3
FYN = FYN (Mus musculus, UniProt P39688); assay: as above; assay type: binding; settings: read-out: % inhibition of FYN
MEK5 = target: T1, MEK5 (Mus musculus, UniProt Q9WVS7); assay: as above; assay type: binding; settings: read-out: % inhibition of MEK5
T1 sequence (Q9WVS7 1-448): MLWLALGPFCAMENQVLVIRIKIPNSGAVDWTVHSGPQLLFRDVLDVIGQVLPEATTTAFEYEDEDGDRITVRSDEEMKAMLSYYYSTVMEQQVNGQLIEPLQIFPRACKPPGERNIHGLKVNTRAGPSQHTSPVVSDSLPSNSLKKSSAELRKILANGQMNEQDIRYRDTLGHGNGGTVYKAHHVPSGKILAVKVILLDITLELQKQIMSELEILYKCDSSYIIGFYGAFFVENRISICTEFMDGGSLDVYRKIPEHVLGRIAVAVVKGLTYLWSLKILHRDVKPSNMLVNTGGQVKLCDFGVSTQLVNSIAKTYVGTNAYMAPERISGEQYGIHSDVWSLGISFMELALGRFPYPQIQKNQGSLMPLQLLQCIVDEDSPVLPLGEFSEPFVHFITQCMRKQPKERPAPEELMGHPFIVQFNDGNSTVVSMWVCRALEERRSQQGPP

[1] = test system: Fn1, Col1a1, and Col3a1 mRNA; assay: Quantitative real-time PCR of fibrosis markers in LA tissue; assay type: in vivo, mouse; settings: 25 mg/kg daily for 4 weeks, C57BL/6J mice
mice = assay: Echocardiography and cardiac MRI of cardiac structure; assay type: in vivo, mouse
TNFα = assay: Plasma cytokine measurement; assay type: in vivo, mouse; settings: 25 mg/kg daily for 4 weeks, C57BL/6J mice, vs vehicle
IL-6 = assay: Plasma cytokine measurement; assay type: in vivo, mouse; settings: 25 mg/kg daily for 4 weeks, C57BL/6J mice, vs vehicle
BTK^xid mice = settings: 25 mg·kg−1·d−1 IP for 4 weeks, vs vehicle
[2] = 25 mg/kg daily for 4 weeks, C57BL/6J mice, vs vehicle

CSK, sequence (P41241 whole entry): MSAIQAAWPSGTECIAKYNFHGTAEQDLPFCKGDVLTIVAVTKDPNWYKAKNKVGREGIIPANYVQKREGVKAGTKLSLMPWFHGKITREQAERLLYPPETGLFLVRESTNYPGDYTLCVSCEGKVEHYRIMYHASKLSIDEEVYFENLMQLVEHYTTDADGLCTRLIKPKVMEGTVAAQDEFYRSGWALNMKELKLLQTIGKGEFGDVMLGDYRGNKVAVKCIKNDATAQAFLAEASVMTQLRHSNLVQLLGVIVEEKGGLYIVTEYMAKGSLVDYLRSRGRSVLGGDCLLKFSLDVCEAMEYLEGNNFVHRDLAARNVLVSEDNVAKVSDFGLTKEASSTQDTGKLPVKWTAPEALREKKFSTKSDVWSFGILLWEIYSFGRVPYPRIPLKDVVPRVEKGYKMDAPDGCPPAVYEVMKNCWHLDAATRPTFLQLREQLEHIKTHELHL
RIPK3, sequence (Q9QZL0 whole entry): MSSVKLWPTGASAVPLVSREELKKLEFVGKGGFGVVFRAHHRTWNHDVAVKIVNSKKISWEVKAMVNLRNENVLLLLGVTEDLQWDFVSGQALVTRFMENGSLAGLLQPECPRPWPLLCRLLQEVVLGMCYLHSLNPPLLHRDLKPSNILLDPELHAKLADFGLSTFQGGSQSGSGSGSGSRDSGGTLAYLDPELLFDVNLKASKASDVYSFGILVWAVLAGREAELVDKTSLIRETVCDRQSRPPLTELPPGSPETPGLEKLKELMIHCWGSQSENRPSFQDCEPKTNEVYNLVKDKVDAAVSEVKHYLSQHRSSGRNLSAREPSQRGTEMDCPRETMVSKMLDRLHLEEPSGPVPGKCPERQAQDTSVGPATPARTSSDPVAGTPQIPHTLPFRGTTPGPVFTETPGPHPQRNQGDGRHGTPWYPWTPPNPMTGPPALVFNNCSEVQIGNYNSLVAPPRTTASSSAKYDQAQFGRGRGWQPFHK
FYN, sequence (P39688 whole entry): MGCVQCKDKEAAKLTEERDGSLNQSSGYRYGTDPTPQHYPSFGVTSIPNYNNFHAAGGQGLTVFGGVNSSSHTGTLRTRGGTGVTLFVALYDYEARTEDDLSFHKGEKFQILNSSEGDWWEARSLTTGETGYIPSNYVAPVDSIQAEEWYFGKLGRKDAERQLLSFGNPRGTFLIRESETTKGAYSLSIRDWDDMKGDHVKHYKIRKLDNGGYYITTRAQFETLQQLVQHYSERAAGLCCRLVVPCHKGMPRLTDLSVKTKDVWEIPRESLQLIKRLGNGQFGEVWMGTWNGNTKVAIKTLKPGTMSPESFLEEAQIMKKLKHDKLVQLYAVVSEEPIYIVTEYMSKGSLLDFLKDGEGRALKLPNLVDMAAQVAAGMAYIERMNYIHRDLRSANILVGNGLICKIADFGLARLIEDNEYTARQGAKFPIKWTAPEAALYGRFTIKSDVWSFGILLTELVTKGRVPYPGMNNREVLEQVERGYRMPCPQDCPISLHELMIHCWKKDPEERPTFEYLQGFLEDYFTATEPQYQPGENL
BTK, sequence (P35991 whole entry): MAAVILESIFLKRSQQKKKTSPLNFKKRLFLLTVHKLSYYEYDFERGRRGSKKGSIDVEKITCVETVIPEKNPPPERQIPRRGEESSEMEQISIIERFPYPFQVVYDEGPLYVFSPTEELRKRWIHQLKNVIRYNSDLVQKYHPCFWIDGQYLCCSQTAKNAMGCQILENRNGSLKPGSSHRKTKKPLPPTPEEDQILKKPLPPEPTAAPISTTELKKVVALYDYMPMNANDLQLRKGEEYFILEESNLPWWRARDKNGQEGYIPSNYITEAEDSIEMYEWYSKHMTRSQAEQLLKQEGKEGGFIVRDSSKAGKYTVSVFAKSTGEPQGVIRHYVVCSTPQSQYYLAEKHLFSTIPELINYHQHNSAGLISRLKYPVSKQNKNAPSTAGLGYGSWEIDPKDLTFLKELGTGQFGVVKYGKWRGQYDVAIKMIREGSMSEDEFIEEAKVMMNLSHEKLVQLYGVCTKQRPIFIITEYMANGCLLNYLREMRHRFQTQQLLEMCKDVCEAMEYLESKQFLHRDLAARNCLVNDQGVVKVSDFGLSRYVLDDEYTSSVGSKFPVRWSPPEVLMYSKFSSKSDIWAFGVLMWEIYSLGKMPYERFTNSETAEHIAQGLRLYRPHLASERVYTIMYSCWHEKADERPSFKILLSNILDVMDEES

- AF inducibility (C57BL/6J mice; C57BL/6J mice, vs vehicle): did not result in increased AF
SMILES: CN1CCN(CCOc2cc(OC3CCOCC3)c3c(Nc4c(Cl)ccc5c4OCO5)ncnc3c2)CC1 [saracatinib]

SMILES: CN(C)Cc1cccc(N/C(=C2\C(=O)Nc3cc(C(N)=O)ccc32)c2ccccc2)c1 [BIX-02188]
- AF inducibility (C57BL/6J mice; C57BL/6J mice, vs vehicle): did not lead to an increase in AF inducibility

- inhibition at 10 µM (BTK): > 90%
- % inhibition of CSK (CSK; 10 μM, 15 minutes, mouse heart lysate, ATP probe 20 μmol/L): do not inhibit CSK
- inhibition at 10 µM (RIPK3): > 90%
- AF inducibility (C57BL/6J mice; C57BL/6J mice, vs vehicle): did not cause AF
SMILES: CC#CC(=O)N1CCC[C@H]1c1nc(-c2ccc(C(=O)Nc3ccccn3)cc2)c2c(N)nccn12 [acalabrutinib]

- inhibition at 10 µM (FYN): > 90%
- inhibition at 10 µM (MEK5): > 90%
- inhibition at 10 µM (CSK; read-out: % inhibition of CSK): > 90%
- inhibition at 10 µM (RIPK3): > 90%
- atrial effective refractory periods (C57BL/6J mice; [2]): prolonged
- inducible AF (C57BL/6J mice; short duration exposure, mice): did not result in increased inducible AF
- expression of fibrosis markers fibronectin, and collagens 1α1 and 3α1 [1]: increased expression
- left ventricular ejection fraction (mice; 25 mg/kg daily for 4 weeks, C57BL/6J mice, MRI): preserved
- atrial dilation (LA size) (mice; [2]): significant atrial dilation
- LA enlargement (LA diameter by echocardiography) (mice; BTK^xid mice, 25 mg·kg−1·d−1 IP for 4 weeks): LA enlargement
- circulating interleukin-6 (IL-6) (IL-6): elevated
- AF inducibility (BTK^xid mice): significant increase in AF inducibility
SMILES: C=CC(=O)N1CCC[C@@H](n2nc(-c3ccc(Oc4ccccc4)cc3)c3c(N)ncnc32)C1 [ibrutinib]
- AF inducibility (C57BL/6J mice; C57BL/6J mice, vs vehicle): more inducible atrial fibrillation than vehicle injected mice
- circulating tumor necrosis factor α (TNFα) (TNFα): elevated
